The text below walks through data of patent US20100278733A1, “COMPOSITION FOR DIAGNOSIS OF AMYLOID-RELATED DISEASE” (priority 2007, published 2010).

The target of series [1] is T1, Aβ(1-42) aggregate (Homo sapiens, UniProt P05067).
T1 construct: Amyloid β protein (Human, 1-42) [TFA form] was purchased from Peptide Institute, Inc; purchased Peptide Institute, Inc
In words: Examination of binding site by binding inhibition experiment using Aβ(1-42) aggregate (Example 2). Conditions: for inhibition of binding of [^125I]CL-NMe2 to the Aβ(1-42) aggregate: in words, FIG. 10. The procedure: Aβ(1-42) was dissolved in 10 mM phosphate buffer containing 1 mM EDTA (pH 7.4) at a concentration of 0.25 mg/mL, and the mixture was incubated at 37° C. for 42 h to prepare an Aβ(1-42) aggregate.
[…] of 10% EtOH solution, […] of [^125I]CL-NMe2 solution, […] of a solution of congo red, thioflavine T, or compound 14 at various concentrations (0 to 20 mM) were mixed, […] of an Aβ(1-42) aggregate solution was finally added, and the mixture was allowed to stand at room temperature for 3 h. Aβ(1-42) aggregate-bound compounds and nonbound compounds were separated with a Brandel M-24R cell harvester using a Whatman GF/B filter. Radioactivities remaining on the filter after filtration were measured with a γ-counter, and inhibition curves were created using Graph Pad Prism 4.0 to calculate inhibition constants.

Series [2] concerns the target T1, Aβ(1-42) aggregate. In words: In-vitro binding inhibition experiment using Aβ(1-42) aggregate (Example 1). Conditions: compound numbers of Example 1. The procedure: (§1) Amyloid β protein (Human, 1-42) [TFA form] was purchased from Peptide Institute, Inc., and special grade reagents were used as other reagents. ^1H-NMR was measured using Varian Gemini 300 and tetramethylsilane as an internal standard substance.
The Aβ(1-42) aggregate was dissolved in a buffer containing 10 mM sodium phosphate and 1 mM EDTA (pH 7.4) at a concentration of 0.5 mg/mL, and the mixture was incubated at 37° C. for 36 to 42 h. The binding inhibition experiment was performed using 12×75-mm borosilicate glass tubes. 850 μL of 10% ethanol solution, 50 μL of an Aβ-binding substance ([^125I]4-dimethylamino-4′ iodochalcone) (10% aqueous ethanol), 50 μL (57 nM) of Aβ(1-42) aggregate solution, and 50 μL of 10% aqueous ethanol each containing Compounds 1 and 4 at various concentrations (0.003 to 781 nM) were mixed, and the mixture was allowed to stand at room temperature for 3 h. Further, nonspecific binding was determined using 4-dimethylamino-4′-iodochalcone (400 nM), a nonradioactive compound. Aβ aggregate-bound chalcone derivatives and nonbound chalcone derivatives were separated with a Brandel M-24R cell harvester using a Whatman GF/B filter. The radioactivities of substances remaining on the filter after filtration were measured with a γ counter. […]

Series [3] is described as follows: In-vivo radioactivity distribution experiment using normal mice (Example 2). Conditions: Example 2 numbering; for In-vivo radioactivity distribution: blood / In-vivo radioactivity distribution: brain / In-vivo radioactivity distribution: heart / In-vivo radioactivity distribution: intestine / In-vivo radioactivity distribution: kidney / In-vivo radioactivity distribution: liver / In-vivo radioactivity distribution: lung / In-vivo radioactivity distribution: pancreas / In-vivo radioactivity distribution: spleen / In-vivo radioactivity distribution: stomach: normal mice, intravenous.

The target in series [4] is T1, Aβ(1-42) aggregate. Description: Binding inhibition experiment using Aβ(1-42) aggregate, Ki values (Example 2). Conditions: radioactive ligand [^125I]CL-NMe2; mean ± standard error of 3 experiments (compound 4: 6 experiments); compound numbers of Example 2; read-out: Ki values calculated by inhibition experiment.
Series [5] has as its system senile plaque amyloid and vascular amyloid. In words: Fluorescence staining experiment using brain tissue sections of Alzheimer's disease model mice. The format is binding, APP/PS1 double transgenic mouse. Conditions: in words; 100 μM in 50% aqueous ethanol, fluorescence microscope, FIG. 11. The method, then:
As an Alzheimer's disease model mouse, APP/PS1 double transgenic mouse was used. The brain was removed, immobilized with 10% formaldehyde, dehydrated with alcohol and xylene, and then paraffin-embedded. The paraffin-embedded brain tissue was cut into a 5-μm section, and the section was treated with xylene, alcohol, and water and deparaffinized. The section was incubated in PBS for 30 min and then in solutions of various chalcone derivatives (100 μM) in 50% aqueous ethanol for 10 min. The section was washed with 50% ethanol and PBS and then examined with a fluorescence microscope (Leica TCS SP2).

The target in series [6] is T1, Aβ(1-42) aggregate. Description: In-vitro binding inhibition experiment using Aβ(1-42) aggregate (Reference Example 2). Conditions: ligand [^125I]4-dimethylamino-4′-iodochalcone; compound numbers of Reference Example 2; read-out: Inhibition constant (Ki, nM) (mean ± SE). The procedure: as §1
The Aβ(1-42) aggregate was dissolved in a buffer containing 10 mM sodium phosphate and 1 mM EDTA (pH 7.4) at a concentration of 0.5 mg/mL, and the mixture was incubated at 37° C. for 36 to 42 h. The binding inhibition experiment was performed using 12×75-mm borosilicate glass tubes. 850 μL of 10% ethanol solution, 50 μL of [^125I]4-dimethylamino-4′-iodochalcone (in 10% aqueous ethanol), 50 μL (29 nM) of an Aβ(1-42) aggregate solution, and 50 μL of a solution of fluorine-containing chalcone derivatives in 10% aqueous ethanol prepared at various concentrations were mixed, and the mixture was allowed to stand at room temperature for 3 h. Further, nonspecific binding was calculated using 4-dimethylamino-4′iodochalcone (400 nM), a nonradioactive compound. Aβ aggregate-bound chalcone derivatives and nonbound chalcone derivatives were separated with a Brandel M-24R cell harvester using Whatman GF/B filters. Radioactivities of substances remaining on the filter were measured with a γ counter. The 50% inhibitory concentrations were calculated using Graph Pad Prism (graph pad software), and inhibition constants (Ki values) were calculated by Cheng-Prusoff equation, Ki=IC50/(1+[L]/Kd). In this equation, the concentration of [^125I]4-dimethylamino-4′-iodochalcone used in the experiment was used for [L], and the dissociation constant of [^125I]4-dimethylamino-4′-iodochalcone against the Aβ(1-42) aggregate was used for Kd.

T1 sequence (P05067 672-713 limits assumed): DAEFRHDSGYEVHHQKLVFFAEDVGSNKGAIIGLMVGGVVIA

For the compound `Nc1c(/N=N/c2ccc(-c3ccc(/N=N/c4cc(S(=O)(=O)O)c5ccccc5c4N)cc3)cc2)cc(S(=O)(=O)O)c2ccccc12` [congo red], in series [1], the “inhibition of binding of [^125I]CL-NMe2 to the Aβ(1-42) aggregate” value was “did not inhibit binding of [^125I]CL-NMe2 to the Aβ(1-42) aggregate to a large extent”.

For `CN(C)c1ccc(/C=C/C(=O)c2ccc(I)s2)cc1` [Compound 1 in Example 1, (E)-3-(4-(dimethylamino)phenyl)-1-(5-iodothiophen-2-yl)prop-2-en-1-one], the “binding property to the amyloid aggregate” value in series [2] (in words) is listed as “very strong binding property”. Further, the Ki in series [2] (ligand [^125I]4-dimethylamino-4′-iodochalcone, mean and standard deviation of three experiments, read-out: Inhibition constants (Ki) for binding to Aβ(1-42) aggregate) was 5.2 ± 0.7 nM.

With `CN(C)c1ccc(C=CC(=O)c2ccc(I)s2)cc1` [Compound 14 in Example 2, 1-(5-iodo-2-thienyl)-3-(4-dimethylaminophenyl)-prop-2-en-1-one], the “stability in the organism” value in series [3] (in words: radioactivity accumulation in the stomach, retention in blood, deiodination) is recorded as “instability in the organism”. Further, in series [3] (2 min), the “In-vivo radioactivity distribution: blood” value was 4.91 (0.71) percent of the dose/g, the “In-vivo radioactivity distribution: brain” value is on record as 2.40 (0.30) percent of the dose/g, the “In-vivo radioactivity distribution: heart” value is given as 5.05 (0.95) percent of the dose/g and the “In-vivo radioactivity distribution: intestine” value is 1.73 (0.21) percent of the dose/g. Also, in series [3] (2 min), the “In-vivo radioactivity distribution: kidney” value is reported as 7.41 (1.54) percent of the dose/g, the “In-vivo radioactivity distribution: liver” value is 9.57 (2.00) percent of the dose/g, the “In-vivo radioactivity distribution: lung” value is 8.29 (0.99) percent of the dose/g and the “In-vivo radioactivity distribution: pancreas” value is given as 3.82 (0.57) percent of the dose/g. In series [3] (2 min), the “In-vivo radioactivity distribution: spleen” value is recorded as 4.05 (0.63) percent of the dose/g and the “In-vivo radioactivity distribution: stomach” value is listed as 1.21(0.27) percent of the dose. In series [3] (10 min), the “In-vivo radioactivity distribution: blood” value is given as 3.58 (0.35) percent of the dose/g, the “In-vivo radioactivity distribution: brain” value is 0.75 (0.31) percent of the dose/g, the “In-vivo radioactivity distribution: heart” value is 3.02 (0.60) percent of the dose/g and the “In-vivo radioactivity distribution: intestine” value is given as 2.57 (0.53) percent of the dose/g. Further, in series [3] (10 min), the “In-vivo radioactivity distribution: kidney” value is 4.66 (0.68) percent of the dose/g, the “In-vivo radioactivity distribution: liver” value is given as 7.10 (1.08) percent of the dose/g, the “In-vivo radioactivity distribution: lung” value is given as 5.17 (0.69) percent of the dose/g and the “In-vivo radioactivity distribution: pancreas” value was 1.94 (0.80) percent of the dose/g. Besides, in series [3] (10 min), the “In-vivo radioactivity distribution: spleen” value is 5.48 (1.02) percent of the dose/g and the “In-vivo radioactivity distribution: stomach” value is 5.29 (1.24) percent of the dose. Besides, in series [3] (30 min), the “In-vivo radioactivity distribution: blood” value is 2.92 (0.60) percent of the dose/g, the “In-vivo radioactivity distribution: brain” value was 0.31 (0.04) percent of the dose/g, the “In-vivo radioactivity distribution: heart” value was 1.48 (0.78) percent of the dose/g and the “In-vivo radioactivity distribution: intestine” value is 4.05 (0.99) percent of the dose/g. In addition, in series [3] (30 min), the “In-vivo radioactivity distribution: kidney” value is 4.31 (1.01) percent of the dose/g, the “In-vivo radioactivity distribution: liver” value is 5.95 (1.19) percent of the dose/g, the “In-vivo radioactivity distribution: lung” value is listed as 3.53 (0.35) percent of the dose/g and the “In-vivo radioactivity distribution: pancreas” value was 1.95 (0.32) percent of the dose/g. In addition, in series [3] (30 min), the “In-vivo radioactivity distribution: spleen” value is 5.01 (1.72) percent of the dose/g and the “In-vivo radioactivity distribution: stomach” value was 9.81 (6.47) percent of the dose. Moreover, in series [3] (60 min), the “In-vivo radioactivity distribution: blood” value is 2.63 (0.45) percent of the dose/g, the “In-vivo radioactivity distribution: brain” value is given as 0.21 (0.02) percent of the dose/g, the “In-vivo radioactivity distribution: heart” value is 1.65 (0.24) percent of the dose/g and the “In-vivo radioactivity distribution: intestine” value is recorded as 4.69 (1.64) percent of the dose/g. Moreover, in series [3] (60 min), the “In-vivo radioactivity distribution: kidney” value is listed as 2.44 (0.35) percent of the dose/g, the “In-vivo radioactivity distribution: liver” value is recorded as 4.96 (1.27) percent of the dose/g, the “In-vivo radioactivity distribution: lung” value was 2.87 (0.46) percent of the dose/g and the “In-vivo radioactivity distribution: pancreas” value is given as 1.86 (0.27) percent of the dose/g. In addition, in series [3] (60 min), the “In-vivo radioactivity distribution: spleen” value is recorded as 3.03 (0.31) percent of the dose/g and the “In-vivo radioactivity distribution: stomach” value was 8.73 (4.21) percent of the dose. In series [1] (FIG. 10, compound numbers of Example 2, read-out: Ki for inhibition of binding of [^125I]CL-NMe2 to the Aβ(1-42) aggregate), the Ki is 4 nM. In series [4], the Ki was 3.9 ± 0.4 nM. The “binding property to senile plaque amyloid and vascular amyloid on brain tissue sections” value in series [5] is “stronger than that of fluorine-containing chalcone derivatives”.

With `Cc1ccc2c(c1)sc(-c1ccc(N(C)C)cc1)[n+]2C.[Cl-]` [thioflavine T], the “inhibition of binding of [^125I]CL-NMe2 to the Aβ(1-42) aggregate” value in series [1] is “did not inhibit binding of [^125I]CL-NMe2 to the Aβ(1-42) aggregate to a large extent”.

As for `CNc1ccc(/C=C/C(=O)c2ccc(OCCOCCF)cc2)cc1` [Compound 17 in Reference Example 2, (E)-1-(4-(2-(2-fluoroethoxy)ethoxy)phenyl)-3-(4-(methylamino)phenyl)prop-2-en-1-one], in series [6], the Ki was found to be 187 ± 3 nM.

In general, Ki refers to the dissociation constant of the complex between target and ligand, obtained from inhibition or displacement.
